Assay results as given in patent US11673876B2, “Substituted aminobenzyl heteroaryl compounds as EGFR and/or PI3K inhibitors” (Mekanistic Therapeutics LLC, priority 2020, dated 2023).
One block for each molecule: values may come before it.

Key:
[1] = biological target: PI3Ka (Homo sapiens (Human), UniProt P42336); test: Z'-LYTE / Adapta kinase assay, PI3Ka; assay type: biochemical; conditions: for inhibition at 0.1 µM: read-out: PI3Ka % Inh. @ 100 nM
Summary of the method: (§1)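 Z'-LYTE FRET-peptide phosphorylation read as coumarin/fluorescein emission ratio (400 nm excitation); Adapta immunoassay detects ADP formation. 60-min kinase reaction, 60-min development, room temperature.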

[2] = biological target: EGFR (Homo sapiens (Human), UniProt P00533); test: Z'-LYTE / Adapta kinase assay, EGFR; assay type: biochemical; conditions: for inhibition at 0.1 µM: read-out: EGFR % Inh. @ 100 nM
Summary of the method: as §1

[3] = Pharmacokinetics in dogs, single IV or oral administration; assay type: in vivo, dog; conditions: for C0 / half-life / Cmax / Tmax: blood; for C0 / half-life / Cmax / Tmax / Cl_obs / F: dog
Description: (§2) The pharmacokinetics of Compound 2R (HCl salt) and Comparative Compound 2 were studied following a single intravenous and/or oral administration to mice, dogs, and monkeys (n=3 for all species). The IV and PO solution formulations for Comparative Compound 2 contained 20% (w/v) propylene glycol, 75% (w/v) 50 mM trisodium phosphate (pH 12), and 5% (w/v) Kolliphor EL. The formulation for Compound 2R contained 1:2 propylene glycol: 1% Tween 80/Na3PO4 (50 mM). Subsequent pharmacokinetic data analysis was performed using non-compartmental analysis modules in Phoenix/WINNONLIN 6.3 (Pharsight, St. Louis, Mo., USA), and the linear trapezoidal rule was used for AUC calculation. Terminal elimination half-life (t½) was calculated based on data points (≥3) in the terminal phase; Tmax=Time of maximum observed concentration; AUClast/D=Area under the concentration-time curve from time zero to the last observed concentration/divided by dose; Cl_obs=Total body clearance; Cmax=maximum observed concentration; F=bioavailability of oral dose form. Blood samples were assayed for compounds using protein precipitation with acetonitrile followed by HPLC/MS/MS analysis. Blood concentration-time data were analyzed by non-compartmental methods.

[4] = Pharmacokinetics in mice, single IV or oral administration; assay type: in vivo, mouse; conditions: for C0 / half-life / Cmax / Tmax: blood; for C0 / half-life / Cmax / Tmax / Cl_obs / F: mouse
Description: as §2

[5] = Pharmacokinetics in monkeys, single IV or oral administration; assay type: in vivo, monkey; conditions: for C0 / half-life / Cmax / Tmax: blood; for C0 / half-life / Cmax / Tmax / Cl_obs / F: monkey
Description: as §2

[6] = system: human CAL-27 (squamous head and neck cancer); test: CAL-27 xenograft study in NCR nude mice; assay type: in vivo; conditions: time to 500 mg vs vehicle
Description: Xenograft Studies. Female NCR nude mice (CrTac:NCr-Foxn1nu from Taconic), 6-7 weeks old, were implanted subcutaneously with 5×10^6 cells in a 1:1 serum-free media/Matrigel® mixture into the region of the right axilla. Mice were randomized into treatment groups and treatments initiated when tumors reached 100 to 200 mg. Compound 2R was administered daily by oral gavage as a fine suspension in 1:2 propylene (glycol in 1% Tween80/Na3PO4 based upon individual animal body weight (0.2 mL/20 g). Subcutaneous tumor volume and body weights were measured two to three times a week. Tumor volumes were calculated by measuring two perpendicular diameters with calipers and using the formula: tumor volume=(length×width2)/2. Individual mice were dosed daily until their tumor burden reached 500 mg for the CAL-27 and HCC-70 models or 1000 mg for the CAL-33 model, to allow for calculation of increase in progression-free survival. Percent increase in survival was calculated by comparing the median time to reach either 500 mg or 1000 mg in the treated group versus the vehicle control group. A complete response (CR) is defined as a tumor below the limits of palpation (<40 mg).
FIGS. 1-3 show the performance of Compound 2R in controlling tumor size. […] Tumor growth curves as well as survival and objective response data are summarized in the accompanying FIGS. 1-3 and the table below.

Chain of EGFR (P00533 25-1210): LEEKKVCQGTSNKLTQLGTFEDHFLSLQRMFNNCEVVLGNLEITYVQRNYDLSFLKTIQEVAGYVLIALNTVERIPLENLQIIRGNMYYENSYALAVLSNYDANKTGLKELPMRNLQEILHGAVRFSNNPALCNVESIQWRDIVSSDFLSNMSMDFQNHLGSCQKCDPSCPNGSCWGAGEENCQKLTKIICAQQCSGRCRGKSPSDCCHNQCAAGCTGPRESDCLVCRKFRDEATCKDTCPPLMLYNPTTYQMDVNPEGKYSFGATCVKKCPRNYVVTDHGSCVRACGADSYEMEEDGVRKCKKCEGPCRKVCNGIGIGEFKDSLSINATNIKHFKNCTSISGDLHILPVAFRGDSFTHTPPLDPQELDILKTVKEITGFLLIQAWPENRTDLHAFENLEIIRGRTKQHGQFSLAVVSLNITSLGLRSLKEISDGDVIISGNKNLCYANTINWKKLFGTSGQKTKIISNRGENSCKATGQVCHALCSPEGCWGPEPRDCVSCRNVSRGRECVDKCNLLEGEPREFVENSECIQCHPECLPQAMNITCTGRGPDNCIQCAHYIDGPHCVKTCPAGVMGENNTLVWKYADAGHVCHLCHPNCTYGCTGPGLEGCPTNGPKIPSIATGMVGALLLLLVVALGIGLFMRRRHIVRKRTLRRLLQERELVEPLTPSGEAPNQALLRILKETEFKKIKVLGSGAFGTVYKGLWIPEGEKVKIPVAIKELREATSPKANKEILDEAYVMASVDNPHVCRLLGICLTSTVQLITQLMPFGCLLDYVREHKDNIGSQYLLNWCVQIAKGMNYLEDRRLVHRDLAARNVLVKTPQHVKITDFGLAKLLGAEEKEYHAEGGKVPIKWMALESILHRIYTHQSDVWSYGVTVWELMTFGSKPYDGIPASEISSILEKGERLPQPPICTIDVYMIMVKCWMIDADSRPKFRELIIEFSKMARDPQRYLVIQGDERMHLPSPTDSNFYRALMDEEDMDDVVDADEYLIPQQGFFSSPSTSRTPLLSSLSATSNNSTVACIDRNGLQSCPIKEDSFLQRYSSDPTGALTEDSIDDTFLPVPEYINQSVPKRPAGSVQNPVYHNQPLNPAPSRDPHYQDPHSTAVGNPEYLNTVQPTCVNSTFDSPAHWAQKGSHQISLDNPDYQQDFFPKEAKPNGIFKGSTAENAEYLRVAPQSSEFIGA
Chain of PI3Ka (P42336 whole entry): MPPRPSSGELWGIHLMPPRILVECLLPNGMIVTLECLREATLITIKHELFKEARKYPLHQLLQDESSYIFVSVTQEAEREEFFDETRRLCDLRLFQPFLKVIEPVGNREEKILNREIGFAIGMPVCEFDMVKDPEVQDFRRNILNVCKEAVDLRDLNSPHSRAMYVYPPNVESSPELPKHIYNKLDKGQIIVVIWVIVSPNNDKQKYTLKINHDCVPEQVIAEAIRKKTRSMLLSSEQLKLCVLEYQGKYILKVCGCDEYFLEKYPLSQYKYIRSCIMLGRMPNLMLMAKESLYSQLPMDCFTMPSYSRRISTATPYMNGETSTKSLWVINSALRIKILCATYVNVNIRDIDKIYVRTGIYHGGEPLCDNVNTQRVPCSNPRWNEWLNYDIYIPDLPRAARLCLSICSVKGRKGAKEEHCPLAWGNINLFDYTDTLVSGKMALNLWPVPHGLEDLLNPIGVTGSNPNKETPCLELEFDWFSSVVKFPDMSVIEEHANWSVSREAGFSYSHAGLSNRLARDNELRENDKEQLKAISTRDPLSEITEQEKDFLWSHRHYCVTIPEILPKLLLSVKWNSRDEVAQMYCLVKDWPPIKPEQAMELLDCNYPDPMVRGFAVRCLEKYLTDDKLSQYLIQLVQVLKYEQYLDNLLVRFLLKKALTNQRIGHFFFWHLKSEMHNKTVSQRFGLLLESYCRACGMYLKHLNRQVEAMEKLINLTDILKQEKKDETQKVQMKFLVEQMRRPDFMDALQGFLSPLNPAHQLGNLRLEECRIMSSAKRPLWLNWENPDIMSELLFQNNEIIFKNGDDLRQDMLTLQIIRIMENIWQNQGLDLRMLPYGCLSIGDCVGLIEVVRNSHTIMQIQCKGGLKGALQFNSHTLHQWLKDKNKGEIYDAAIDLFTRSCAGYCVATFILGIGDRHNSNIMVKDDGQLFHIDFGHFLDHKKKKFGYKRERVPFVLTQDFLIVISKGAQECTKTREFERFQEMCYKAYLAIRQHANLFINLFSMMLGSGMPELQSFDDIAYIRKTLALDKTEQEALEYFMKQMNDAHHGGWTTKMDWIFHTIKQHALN
Chain of PI3Ka (P27986 whole entry partner): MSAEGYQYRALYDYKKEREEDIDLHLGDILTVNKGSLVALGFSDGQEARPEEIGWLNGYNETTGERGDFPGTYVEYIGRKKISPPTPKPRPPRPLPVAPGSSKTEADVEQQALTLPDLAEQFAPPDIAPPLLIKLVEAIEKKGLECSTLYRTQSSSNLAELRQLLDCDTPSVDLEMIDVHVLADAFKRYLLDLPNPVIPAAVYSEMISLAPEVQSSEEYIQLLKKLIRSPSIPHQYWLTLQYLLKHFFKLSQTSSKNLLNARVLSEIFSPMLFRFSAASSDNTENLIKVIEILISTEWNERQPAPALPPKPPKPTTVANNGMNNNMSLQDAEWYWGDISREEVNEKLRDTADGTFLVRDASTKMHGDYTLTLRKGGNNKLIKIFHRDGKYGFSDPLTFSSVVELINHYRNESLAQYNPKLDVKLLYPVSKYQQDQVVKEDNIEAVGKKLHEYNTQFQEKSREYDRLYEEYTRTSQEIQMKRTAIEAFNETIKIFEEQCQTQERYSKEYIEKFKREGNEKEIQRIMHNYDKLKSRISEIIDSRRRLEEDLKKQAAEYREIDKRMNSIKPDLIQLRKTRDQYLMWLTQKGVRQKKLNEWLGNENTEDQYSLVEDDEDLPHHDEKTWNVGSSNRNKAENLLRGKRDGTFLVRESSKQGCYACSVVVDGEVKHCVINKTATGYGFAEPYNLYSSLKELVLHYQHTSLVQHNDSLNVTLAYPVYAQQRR

SMILES: CS(=O)(=O)Nc1cc(-c2ccc3ncnc(Nc4ccc(F)c(Cl)c4)c3c2)cnc1Cl [Comparative Compound 2, reference compound]
PI3Ka IC50 (nM) [1]: ++++ (value is 2 nM or less)
inhibition at 0.1 µM [1]: > 90%
IC50 [2]: 2 to 20 nM
inhibition at 0.1 µM [2]: > 90%
C0 ([3]; 1 mg/kg, IV, 1 mpk): 5490 ng/mL
half-life ([3]; 1 mg/kg, IV, 1 mpk): 0.7 h
Cmax ([3]; 5 mg/kg, oral, 5 mpk): 716 ng/mL
Tmax ([3]; 5 mg/kg, oral, 5 mpk): 2 h
half-life ([3]; 5 mg/kg, oral, 5 mpk): 0.8 h
Cl_obs ([3]; IV, 1 mpk): 10.50 mL/min/kg
F ([3]; oral, 5 mpk): 25%
C0 ([4]; 10 mg/kg, IV, 10 mpk): 25600 ng/mL
half-life ([4]; 10 mg/kg, IV, 10 mpk): 1.2 h
Cmax ([4]; 10 mg/kg, oral, 10 mpk): 8270 ng/mL
Tmax ([4]; 10 mg/kg, oral, 10 mpk): 1 h
half-life ([4]; 10 mg/kg, oral, 10 mpk): 1.4 h
Cl_obs ([4]; IV, 10 mpk): 3.3 mL/min/kg
F ([4]; oral, 10 mpk): 63%
C0 ([5]; 1 mg/kg, IV, 1 mpk): 5910 ng/mL
half-life ([5]; 1 mg/kg, IV, 1 mpk): 1.1 h
Cmax ([5]; 10 mg/kg, oral, 10 mpk): 110 ng/mL
Tmax ([5]; 10 mg/kg, oral, 10 mpk): 1 h
half-life ([5]; 10 mg/kg, oral, 10 mpk): 2 h
Cl_obs ([5]; IV, 1 mpk): 15.71 mL/min/kg
F ([5]; oral, 10 mpk): 3%

SMILES: CS(=O)(=O)Nc1cncc(-c2ccc3ncnc(NCc4ccccc4)c3c2)c1 [Comparative Compound 3, reference compound]
PI3Ka IC50 (nM) [1]: ++ (value is greater than 20 nM and less than or equal to 200 nM)
PI3Ka % Inh. @ 100 nM ([1]; 100 nM): *** (value is greater than 80% and less than or equal to 90%)
EGFR % Inh. @ 100 nM ([2]; 100 nM): **** (value is greater than 90%)

SMILES: C[C@H](Nc1ncnc2ccc(-c3cnc(Cl)c(NS(C)(=O)=O)c3)cc12)c1ccccc1 [Compound 2S, N-(2-chloro-5-(4-((1S-phenylethyl)amino)quinazolin-6-yl)pyridin-3-yl)methanesulfonamide]
PI3Ka IC50 (nM) [1]: ++++ (value is 2 nM or less)
inhibition at 0.1 µM [1]: > 90%
IC50 [2]: > 200 nM
inhibition at 0.1 µM [2]: < 10%

SMILES: CC(Nc1c(C#N)cnc2ccc(-c3cnc(N)nc3)cc12)c1ccccc1 (stereo not shown) [Compound 53, 6-(2-aminopyrimidin-5-yl)-4-(1-phenylethylamino) quinoline-3-carbonitrile]
PI3Ka IC50 (nM) [1]: + (value is greater than 200 nM)
inhibition at 0.1 µM [1]: 10 to 80%
IC50 [2]: 2 to 20 nM
inhibition at 0.1 µM [2]: 80 to 90%

SMILES: C[C@@H](Nc1ncnc2ccc(-c3cnc(Cl)c(NS(C)(=O)=O)c3)cc12)c1ccccc1 [Compound 2R, N-(2-chloro-5-(4-((1R-phenylethyl)amino)quinazolin-6-yl)pyridin-3-yl)methanesulfonamide]
IC50 [1]: 2 to 20 nM
inhibition at 0.1 µM [1]: > 90%
IC50 [2]: 2 to 20 nM
inhibition at 0.1 µM [2]: 80 to 90%
C0 ([3]; 1 mg/kg, IV, 1 mpk): 7150 ng/mL
half-life ([3]; 1 mg/kg, IV, 1 mpk): 10.4 h
Cmax ([3]; 5 mg/kg, oral, 5 mpk): 7090 ng/mL
Tmax ([3]; 5 mg/kg, oral, 5 mpk): 2 h
half-life ([3]; 5 mg/kg, oral, 5 mpk): 12 h
Cl_obs ([3]; IV, 1 mpk): 0.52 mL/min/kg
F ([3]; oral, 5 mpk): 48%
increase in exposure (AUClast/D) compared to Comparative Compound 2 ([3]; dogs, dosed intravenously): ~15 fold
improvement in exposure (AUClast/D) relative to Comparative Compound 2 ([3]; dogs, oral): > 28 fold
C0 ([4]; 5 mg/kg, IV, 5 mpk): 25700 ng/mL
half-life ([4]; 5 mg/kg, IV, 5 mpk): 2.5 h
Cmax ([4]; 25 mg/kg, oral, 25 mpk): 21700 ng/mL
Tmax ([4]; 25 mg/kg, oral, 25 mpk): 4.17 h
half-life ([4]; 25 mg/kg, oral, 25 mpk): 4.9 h
increase in exposure (AUClast/D) compared to Comparative Compound 2 ([4]; mice, IV): ~3 fold
enhanced exposure relative to Comparative Compound 2 ([4]; mice, oral): 3 fold
Cl_obs ([4]; IV, 5 mpk): 1.2 mL/min/kg
F ([4]; oral, 25 mpk): 83%
C0 ([5]; 1 mg/kg, IV, 1 mpk): 4170 ng/mL
half-life ([5]; 1 mg/kg, IV, 1 mpk): 2.3 h
Cmax ([5]; 10 mg/kg, oral, 10 mpk): 4710 ng/mL
Tmax ([5]; 10 mg/kg, oral, 10 mpk): 2 h
half-life ([5]; 10 mg/kg, oral, 10 mpk): 4 h
Cl_obs ([5]; IV, 1 mpk): 4.81 mL/min/kg
F ([5]; oral, 10 mpk): 59%
increase in exposure (AUClast/D) compared to Comparative Compound 2 ([5]; monkeys, IV): ~3 fold
improvement in exposure (AUClast/D) relative to Comparative Compound 2 ([5]; monkeys, oral): > 74 fold
Median Increase In Survival ([6]; CAL-27, 10 mg/kg daily oral gavage): 328%
Median Increase In Survival ([6]; CAL-27, 100 mg/kg daily oral gavage): >700%

SMILES: CS(=O)(=O)Nc1cc(-c2ccc3ncnc(NCc4ccccc4)c3c2)cnc1Cl [Comparative Compound 1, N-[5-[4-(benzylamino)quinazolin-6-yl]-2-chloro-3-pyridyl]methanesulfonamide, reference compound]
PI3Ka IC50 (nM) [1]: ++++ (value is 2 nM or less)
inhibition at 0.1 µM [1]: > 90%
IC50 [2]: 20 to 200 nM
inhibition at 0.1 µM [2]: 10 to 80%

Continued, values first:

IC50 [1]: 2 to 20 nM
inhibition at 0.1 µM [1]: > 90%
IC50 [2]: 20 to 200 nM
inhibition at 0.1 µM [2]: 10 to 80%
SMILES: C[C@@H](Nc1ncnc2ccc(-c3cnc(Cl)c(NS(C)(=O)=O)c3)cc12)c1ccc(F)cc1 [Compound 111R, N-(2-chloro-5-(4-((1R-(4-fluorophenyl)ethyl)amino)quinazolin-6-yl)pyridin-3-yl)methanesulfonamide]

PI3Ka IC50 (nM) [1]: + (value is greater than 200 nM)
inhibition at 0.1 µM [1]: 10 to 80%
IC50 [2]: 2 to 20 nM
inhibition at 0.1 µM [2]: > 90%
SMILES: CC(Nc1c(C#N)cnc2ccc(-c3cnc4[nH]ncc4c3)cc12)c1ccccc1 (stereo not shown) [Compound 54, 4-(1-phenylethylamino)-6-(1H-pyrazolo[3,4-b]pyridin-5-yl)quinoline-3-carbonitrile]

PI3Ka IC50 (nM) [1]: + (value is greater than 200 nM)
inhibition at 0.1 µM [1]: 10 to 80%
IC50 [2]: 2 to 20 nM
inhibition at 0.1 µM [2]: > 90%
SMILES: C[C@@H](Nc1c(C#N)cnc2ccc(-c3cnc(N)nc3)cc12)c1ccccc1 [Compound 53R, (R)-6-(2-aminopyrimidin-5-yl)-4-((1-phenylethyl)amino)quinoline-3-carbonitrile]
